From US8143227B2, “Azithromycin for treatment of skin disorders” (priority 2008, dated 2012)

Key:
[1] = tested on: moderate to severe facial acne vulgaris; assay: Additional low dosage regimens, lesion counts; format: in vivo, human
Procedure: Five male subjects and five female subjects with moderate to severe facial acne vulgaris, having a mean age of 19.6 years, were treated either with 25 mg of oral azithromycin daily or with 80 mg of oral azithromycin every other day. Each of the ten subjects had acne nodules. The male subjects received the 25 mg per day regimen and the female subjects received the 80 mg every other day regimen. Treatment was continued for a duration of 6 weeks. The numbers of facial inflammatory lesions: papules, pustules, and nodules, and non-inflammatory lesions: open and closed comedones, were counted at the beginning of treatment and again after 3 weeks of treatment and after 6 weeks of treatment. Additionally, nodules were counted independently at each of these visits. Additionally, during the treatment study, each subject reported the occurrence of any adverse effects. The results of this study for the 25 mg/day regimen are shown in Table 7 and for the 80 mg every other day regiment in Table 8. In these tables, the numbers represent the mean number of lesions in the four subjects of each group. The % decrease from Day 0 was calculated as the mean of the differences for each of the parameters (inflammatory lesions, non-inflammatory lesion and nodules) for each individual subject on Day 21 and Day 42.

acne = conditions: 500 mg/day for 4 days in four cycles every 10 days; Gruber 1998; cited from earlier work
[2] = 25 mg/day for 6 weeks, male subjects, Day 0 (beginning of treatment)
[3] = 25 mg/day for 6 weeks, male subjects, Day 21
[4] = 25 mg/day for 6 weeks, male subjects, Day 42
[5] = 80 mg every other day for 6 weeks, female subjects, Day 0 (beginning of treatment)
[6] = 80 mg every other day for 6 weeks, female subjects, Day 21
[7] = 80 mg every other day for 6 weeks, female subjects, Day 42

CC[C@H]1OC(=O)[C@H](C)[C@@H](O[C@H]2C[C@@](C)(OC)[C@@H](O)[C@H](C)O2)[C@H](C)[C@@H](O[C@@H]2O[C@H](C)C[C@H](N(C)C)[C@H]2O)[C@](C)(O)C[C@@H](C)CN(C)[C@H](C)[C@@H](O)[C@]1(C)O [Azithromycin, 9-deoxo-9a-aza-9a-methyl-9a-homoerythromycin A]
effectiveness in treating skin disorders such as acne in adults ([1]; 25 mg per day, daily): effective | Inflammatory lesions (mean number) [1, 2]: 37.4 | Nodules (mean number) [1, 2]: 3.0 | Non-inflammatory lesions (mean number) [1, 2]: 12.6 | Inflammatory lesions % Decrease from Day 0 [1, 3]: 38.0% | Inflammatory lesions (mean number) [1, 3]: 22.8 | Nodules % Decrease from Day 0 [1, 3]: 45.0% | Nodules (mean number) [1, 3]: 1.6 | Non-inflammatory lesions % Decrease from Day 0 [1, 3]: 18.8% | Non-inflammatory lesions (mean number) [1, 3]: 10.2 | Inflammatory lesions % Decrease from Day 0 [1, 4]: 41.0% | Inflammatory lesions (mean number) [1, 4]: 22.0 | Nodules % Decrease from Day 0 [1, 4]: 58.3% | Nodules (mean number) [1, 4]: 1.2 | Non-inflammatory lesions % Decrease from Day 0 [1, 4]: 34.3% | Non-inflammatory lesions (mean number) [1, 4]: 8.4 | effectiveness in treating skin disorders such as acne ([1]; 80 mg every other day): effective | Inflammatory lesions (mean number) [1, 5]: 24.4 | Nodules (mean number) [1, 5]: 3.8 | Non-inflammatory lesions (mean number) [1, 5]: 48.6 | Inflammatory lesions % Decrease from Day 0 [1, 6]: 34.0% | Inflammatory lesions (mean number) [1, 6]: 16.0 | Nodules % Decrease from Day 0 [1, 6]: 76.0% | Nodules (mean number) [1, 6]: 1.0 | Non-inflammatory lesions % Decrease from Day 0 [1, 6]: 18.5% | Non-inflammatory lesions (mean number) [1, 6]: 41.2 | Inflammatory lesions % Decrease from Day 0 [1, 7]: 15.5% | Inflammatory lesions (mean number) [1, 7]: 20.4 | Nodules % Decrease from Day 0 [1, 7]: 58.0% | Nodules (mean number) [1, 7]: 1.8 | Non-inflammatory lesions % Decrease from Day 0 [1, 7]: 30.1% | Non-inflammatory lesions (mean number) [1, 7]: 31.6 | efficacy in the treatment of acne (acne): efficacious | gastrointestinal side effect rate (acne): about 10%
